Assay results as given in patent US7846945B2, “Piperdine-based inhibitors of sodium glucose co-transporter 2 and methods of their use” (Lexicon Pharmaceuticals, Inc., priority 2007, dated 2010).

Biological target: T1, Human sodium/glucose co-transporter type 2 (SGLT2) (Homo sapiens, UniProt P31639)
T1 construct: HA; expressed in transfected cells
T1 sequence (P31639 1-672): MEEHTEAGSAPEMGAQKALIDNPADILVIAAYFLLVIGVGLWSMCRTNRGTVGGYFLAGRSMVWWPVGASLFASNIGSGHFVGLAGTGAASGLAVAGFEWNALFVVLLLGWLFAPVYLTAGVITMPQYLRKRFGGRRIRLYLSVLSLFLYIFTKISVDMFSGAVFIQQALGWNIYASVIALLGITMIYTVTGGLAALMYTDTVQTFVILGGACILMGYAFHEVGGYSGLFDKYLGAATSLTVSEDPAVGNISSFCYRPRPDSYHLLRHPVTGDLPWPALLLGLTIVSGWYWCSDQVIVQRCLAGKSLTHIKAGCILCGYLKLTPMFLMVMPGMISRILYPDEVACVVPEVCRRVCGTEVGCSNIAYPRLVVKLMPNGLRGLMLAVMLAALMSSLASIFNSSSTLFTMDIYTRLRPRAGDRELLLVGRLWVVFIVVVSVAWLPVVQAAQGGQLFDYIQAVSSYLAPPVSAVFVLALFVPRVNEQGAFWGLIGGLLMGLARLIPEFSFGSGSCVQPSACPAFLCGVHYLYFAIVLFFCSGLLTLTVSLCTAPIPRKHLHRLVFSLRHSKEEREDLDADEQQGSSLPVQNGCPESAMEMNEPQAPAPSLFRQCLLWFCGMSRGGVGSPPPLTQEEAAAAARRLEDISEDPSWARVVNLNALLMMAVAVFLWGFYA
Assay: In vitro human SGLT2 inhibition assay (14C-AMG uptake)
Type: cell-based
Conditions: HEK293 cells expressing human HA-SGLT2; potent = SGLT2 IC50 of less than about 500 nM; read-out: SGLT2 IC50 (potent SGLT2 inhibitor mark)
Description: HEK293 cells were transfected with the human HA-SGLT2-pIRESpuro2 vector and the bulk stable cell line was selected in presence of 0.5 μg/ml of puromycin. Human HA-SGLT2 cells were maintained in DMEM media containing 10% FBS, 1% GPS and 0.5 μg/ml of puromycin.
The HEK293 cells expressing the human HA-SGLT2 were seeded in 384 well plates (30,000 cells/well) in DMEM media containing 10% FBS, 1% GPS and 0.5 μg/ml of puromycin, then incubated overnight at 37 C, 5% CO2. Cells were then washed with uptake buffer (140 mM NaCl, 2 mM KCl, 1 mM CaCl2, 1 mM MgCl2, 10 mM HEPES, 5 mM Tris, 1 mg/ml bovine serum albumin (BSA), pH 7.3). Twenty microliters of uptake buffer with or without testing compounds were added to the cells. Then, 20 microliters of uptake buffer containing ^14C-AMG (100 nCi) were added to the cells. The cell plates were incubated at 37° C., 5% CO2 for 1-2 hours. After washing the cells with uptake buffer, scintillation fluid was added (40 microliters/well) and ^14C-AMG uptake was measured by counting radioactivity using a scintillation coulter (TopCoulter NXT; Packard Instruments).
The IC50 of a compound with regard to a given target is determined by fitting the relevant data, using the Levenburg Marquardt algorithm, to the equation: y=A+((B−A)/(1+((C/x)^D))) wherein A is the minimum y value; B is the maximum y value; C is the IC50; and D is the slope.

IC50, < 500 nM:
CCOc1ccc(Cc2cc([C@H]3[C@H](O)[C@@H](O)[C@H](O)CN3C(C)=O)ccc2Cl)cc1 [1-{(2S,3S,4S,5R)-2-[4-Chloro-3-(4-ethoxy-benzyl)-phenyl]-3,4,5-trihydroxy-piperidin-1-yl}-ethanone]
CCOc1ccc(Cc2cc([C@@H]3O[C@H](SCC(N)=O)[C@@H](O)[C@H](O)[C@H]3O)ccc2Cl)cc1 [2-{(2R,3S,4R,5R,6S)-6-[4-Chloro-3-(4-ethoxy-benzyl)-phenyl]-3,4,5-trihydroxy-tetrahydro-pyran-2-ylsulfanyl}-acetamide]
CCOc1ccc(Cc2cc([C@H]3[C@H](O)[C@@H](O)[C@H](O)CN3CC(N)=O)ccc2Cl)cc1 [2-{(2S,3S,4S,5R)-2-[4-Chloro-3-(4-ethoxy-benzyl)-phenyl]-3,4,5-trihydroxy-piperidin-1-yl}-acetamide]
CCOc1ccc(-c2cccc([C@@H]3OC(OC)[C@@H](O)[C@H](O)[C@H]3O)c2)cc1 (stereo partly drawn) [(2S,3R,4R,5S)-2-(4′-Ethoxy-biphenyl-3-yl)-6-methoxy-tetrahydro-pyran-3,4,5-triol]
CCOc1ccc(Cc2cc([C@@H]3OC(OC)[C@@H](O)[C@H](O)[C@H]3O)ccc2C)cc1 (stereo partly drawn) [(2S,3R,4R,5S)-2-[3-(4-Ethoxy-benzyl)-4-methyl-phenyl]-6-methoxy-tetrahydro-pyran-3,4,5-triol]
CCOc1ccc(Cc2cccc([C@@H]3OC(OC)[C@@H](O)[C@H](O)[C@H]3O)c2)cc1 (stereo partly drawn) [(2S,3R,4R,5S)-2-[3-(4-Ethoxy-benzyl)-phenyl]-6-methoxy-tetrahydro-pyran-3,4,5-triol]
CCOc1ccc(Cc2cc([C@@H]3OC(OCC(F)(F)F)[C@@H](O)[C@H](O)[C@H]3O)ccc2Cl)cc1 (stereo partly drawn) [(2S,3R,4R,5S)-2-[4-Chloro-3-(4-ethoxy-benzyl)-phenyl]-6-(2,2,2-trifluoro-ethoxy)-tetrahydro-pyran-3,4,5-triol]
CCOc1ccc(Cc2cc([C@@H]3OC(OCC(O)CO)[C@@H](O)[C@H](O)[C@H]3O)ccc2Cl)cc1 (stereo partly drawn) [(2S,3R,4R,5S)-2-[4-Chloro-3-(4-ethoxy-benzyl)-phenyl]-6-(2,3-dihydroxy-propoxy)-tetrahydro-pyran-3,4,5-triol]
CCOc1ccc(Cc2cc([C@@H]3OC(OCCN(C)C)[C@@H](O)[C@H](O)[C@H]3O)ccc2Cl)cc1 (stereo partly drawn) [(2S,3R,4R,5S)-2-[4-Chloro-3-(4-ethoxy-benzyl)-phenyl]-6-(2-dimethylamino-ethoxy)-tetrahydro-pyran-3,4,5-triol]
CCOc1ccc(Cc2cc([C@@H]3OC(OCCS)[C@@H](O)[C@H](O)[C@H]3O)ccc2Cl)cc1 (stereo partly drawn) [(2S,3R,4R,5S)-2-[4-Chloro-3-(4-ethoxy-benzyl)-phenyl]-6-(2-mercapto-ethoxy)-tetrahydro-pyran-3,4,5-triol]
CCOc1ccc(Cc2cc([C@@H]3OC(OCCOC)[C@@H](O)[C@H](O)[C@H]3O)ccc2Cl)cc1 (stereo partly drawn) [(2S,3R,4R,5S)-2-[4-Chloro-3-(4-ethoxy-benzyl)-phenyl]-6-(2-methoxy-ethoxy)-tetrahydro-pyran-3,4,5-triol]
CCOc1ccc(Cc2cc([C@@H]3OC(OCCCO)[C@@H](O)[C@H](O)[C@H]3O)ccc2Cl)cc1 (stereo partly drawn) [(2S,3R,4R,5S)-2-[4-Chloro-3-(4-ethoxy-benzyl)-phenyl]-6-(3-hydroxy-propoxy)-tetrahydro-pyran-3,4,5-triol]
CCCSC1O[C@@H](c2ccc(Cl)c(Cc3ccc(OCC)cc3)c2)[C@H](O)[C@@H](O)[C@@H]1O (stereo partly drawn) [(2S,3R,4R,5S)-2-[4-Chloro-3-(4-ethoxy-benzyl)-phenyl]-6-propylsulfanyl-tetrahydro-pyran-3,4,5-triol]
COc1ccc(Sc2cc([C@@H]3OC(OC)[C@@H](O)[C@H](O)[C@H]3O)ccc2Cl)cc1 (stereo partly drawn) [(2S,3R,4R,5S)-2-[4-Chloro-3-(4-methoxy-phenylsulfanyl)-phenyl]-6-methoxy-tetrahydro-pyran-3,4,5-triol]
COC1O[C@@H](c2ccc(Cl)c(Cc3ccc(OCCOCc4ccccc4)cc3)c2)[C@H](O)[C@@H](O)[C@@H]1O (stereo partly drawn) [(2S,3R,4R,5S)-2-{3-[4-(2-Benzyloxy-ethoxy)-benzyl]-4-chloro-phenyl}-6-methoxy-tetrahydro-pyran-3,4,5-triol]
COC1O[C@@H](c2cccc(Cc3ccc(OCCO)cc3)c2)[C@H](O)[C@@H](O)[C@@H]1O (stereo partly drawn) [(2S,3R,4R,5S)-2-{3-[4-(2-Hydroxy-ethoxy)-benzyl]-phenyl}-6-methoxy-tetrahydro-pyran-3,4,5-triol]
COC1O[C@@H](c2ccc(Cl)c(Cc3ccc(OC4CCN(C)CC4)cc3)c2)[C@H](O)[C@@H](O)[C@@H]1O (stereo partly drawn) [(2S,3R,4R,5S)-2-{4-Chloro-3-[4-(1-methyl-piperidin-4-yloxy)-benzyl]-phenyl}-6-methoxy-tetrahydro-pyran-3,4,5-triol]
COc1cc(Oc2ccc(Cc3cc([C@@H]4OC(OC)[C@@H](O)[C@H](O)[C@H]4O)ccc3Cl)cc2)nc(OC)n1 (stereo partly drawn) [(2S,3R,4R,5S)-2-{4-Chloro-3-[4-(2,6-dimethoxy-pyrimidin-4-yloxy)-benzyl]-phenyl}-6-methoxy-tetrahydro-pyran-3,4,5-triol]
COC1O[C@@H](c2ccc(Cl)c(Cc3ccc(OCCO)cc3)c2)[C@H](O)[C@@H](O)[C@@H]1O (stereo partly drawn) [(2S,3R,4R,5S)-2-{4-Chloro-3-[4-(2-hydroxy-ethoxy)-benzyl]-phenyl}-6-methoxy-tetrahydro-pyran-3,4,5-triol]
COCCOc1ccc(Cc2cc([C@@H]3OC(OC)[C@@H](O)[C@H](O)[C@H]3O)ccc2Cl)cc1 (stereo partly drawn) [(2S,3R,4R,5S)-2-{4-Chloro-3-[4-(2-methoxy-ethoxy)-benzyl]-phenyl}-6-methoxy-tetrahydro-pyran-3,4,5-triol]
COC1O[C@@H](c2ccc(Cl)c(Cc3ccc(OCCSC)cc3)c2)[C@H](O)[C@@H](O)[C@@H]1O (stereo partly drawn) [(2S,3R,4R,5S)-2-{4-Chloro-3-[4-(2-methylsulfanyl-ethoxy)-benzyl]-phenyl}-6-methoxy-tetrahydro-pyran-3,4,5-triol]
COC1O[C@@H](c2ccc(Cl)c(Cc3ccc(O[C@H]4CCN(C)C4)cc3)c2)[C@H](O)[C@@H](O)[C@@H]1O (stereo partly drawn) [(2S,3R,4R,5S)-2-{4-Chloro-3-[4-((S)-1-methyl-pyrrolidin-3-yloxy)-benzyl]-phenyl}-6-methoxy-tetrahydro-pyran-3,4,5-triol]
COC1O[C@@H](c2ccc(Cl)c(Cc3ccc(Oc4ccncc4)cc3)c2)[C@H](O)[C@@H](O)[C@@H]1O (stereo partly drawn) [(2S,3R,4R,5S)-2-{4-Chloro-3-[4-(pyridin-4-yloxy)-benzyl]-phenyl}-6-methoxy-tetrahydro-pyran-3,4,5-triol]
COC1O[C@@H](c2ccc(Cl)c(Cc3ccc(Oc4cncnc4)cc3)c2)[C@H](O)[C@@H](O)[C@@H]1O (stereo partly drawn) [(2S,3R,4R,5S)-2-{4-Chloro-3-[4-(pyrimidin-5-yloxy)-benzyl]-phenyl}-6-methoxy-tetrahydro-pyran-3,4,5-triol]
COC1O[C@@H](c2ccc(Cl)c(Cc3ccc(OC4CCOCC4)cc3)c2)[C@H](O)[C@@H](O)[C@@H]1O (stereo partly drawn) [(2S,3R,4R,5S)-2-{4-Chloro-3-[4-(tetrahydro-pyran-4-yloxy)-benzyl]-phenyl}-6-methoxy-tetrahydro-pyran-3,4,5-triol]
COC1O[C@@H](c2ccc(Cl)c(Cc3ccc(Oc4nccs4)cc3)c2)[C@H](O)[C@@H](O)[C@@H]1O (stereo partly drawn) [(2S,3R,4R,5S)-2-{4-Chloro-3-[4-(thiazol-2-yloxy)-benzyl]-phenyl}-6-methoxy-tetrahydro-pyran-3,4,5-triol]
CCOc1ccc(Cc2cc([C@@H]3O[C@H](SCC(F)(F)F)[C@@H](O)[C@H](O)[C@H]3O)ccc2Cl)cc1 [(2S,3R,4R,5S,6R)-2-[4-Chloro-3-(4-ethoxy-benzyl)-phenyl]-6-(2,2,2-trifluoro-ethylsulfanyl)-tetrahydro-pyran-3,4,5-triol]
